How the values were obtained:
[1] = system: Mouse colon cancer CT26 cells; assay: CT26 cells with IN10018 and MRTX1133: microscope and flow cytometry for CRT / Annexin V (Example 4); assay type: cell-based; details: CT26, 48 hours; IN10018 5 μM, MRTX1133 6 μM
Procedure: (§1) Mouse colon cancer CT26 cells (Insitute of Biochemistry and Cell Biology) were cultured with RPMI-1640 (Shanghai Basalmedia, classification number: L210KJ, batch number: F210916)+10% FBS (Gibco, classification number: 10099-141c, batch number: 2158737cp) and passaged twice. When the cells were in good condition, the culture solution was placed in a 24-well plate. After the cells were spread for 24 hours, four groups were set up, wherein the first group was a control group, and the culture medium was added; the second group was IN10018 with a concentration of 5 μM; the third group was MRTX1133 (SuperLan Chemical Co., Ltd., classification number: P2621928-55-8, batch number: 131005) with a concentration of 6 μM; and the fourth group was IN10018 (5 μM) combined with MRTX1133 (6 μM). The drugs were mixed and the mixture was cultured in a 5% CO2 incubator at 37° C. for 48 hours.
(§2) After 48 hours of drug action, the cells were observed under a microscope and photographed, and the photos were kept. Then the cells were collected, subjected to flow analysis, and washed twice with flow buffer (PBS+2% FBS). 0.5 μl of AF647 anti-Calreticulin antibody (abcam, classification number: ab196159, batch number: CR33676773) was added to each well and fully mixed. […] The mixture was cultured at room temperature in the dark for 15 minutes, and then analyzed by flow cytometry.

Mouse lung cancer KPL = assay: KPL cells with IN10018 and MRTX1133: microscope and flow cytometry for CRT / Annexin V (Example 6); assay type: cell-based; details: 48 hours, IN10018 10 μM, MRTX1133 15 μM
Procedure: as §1, with “Mouse lung” for “Mouse colon”, “cancer KPL” for “cancer CT26 cells”, “of 10” for “of 5”, “of 15” for “of 6”, “IN10018 (10” for “IN10018 (5”, “MRTX1133 (15” for “MRTX1133 (6”
as §2

KPL tumor = assay: Anti-tumor efficacy in KPL model in C57BL/6 mice (Example 12); assay type: in vivo; details: MRTX133 5 mg/kg IP BID, ANTI MOUSE PD-1 10 mg/kg IP BIW, IN10018 25 mg/kg PO QD
Procedure: 45 female C57BL/6 mice, 6-8 weeks old and 19 to 25 g in weight, were used in this study. The mice, marked by ear coding, were kept in Individual Ventilation Cages at constant temperature (20-26° C.) and humidity (40%-70%) with 3 animals in each cage. Animals had free access to irradiation sterilized dry granule food (Keao Xieli (Tianjin) Feed Co., Ltd) and sterile drinking water during the entire study period.
KPL cells were maintained in vitro in RPMI-1640 medium supplemented with 10% FBS and 1% P.S. at 37° C. in an atmosphere of 5% CO2 in air. The tumor cells were routinely sub-cultured three times weekly. KPL cells growing in an exponential growth phase were resuspended in PBS and adjusted concentration to 2×10^6/mL for tumor injection.
Each mouse was injected subcutaneously at the right flank with 0.1 mL KPL cell suspension (0.2×10^6) for tumor development. When tumor reach around 60 mm^3 on the 7th day after cell injection, mice were randomly grouped according to tumor volume, followed by drug administration. The day of grouping was defined as day 0.
The major endpoint is to see if the tumor growth can be delay or mice can be cured. Tumor sizes were measured three times weekly in two dimensions using a caliper (No. 105688, sylvac Dantsin), and the volume was expressed in mm^3 using the formula: V=0.5×a×b^2 (a, long diameters; b, short diameters). The tumor sizes were then used for the calculations of T/C (%) values. T/C (%) was calculated using the formula: T/C (%)=(Ti−T0)/(Vi−V0)×100%, Ti was the average tumor volume of a treatment group on a given day, T0 was the average tumor volume of the treatment group on the first day of treatment, Vi was the average tumor volume of the vehicle control group on the same day with Ti, and V0 was the average tumor volume of the vehicle group on the first day of treatment.
TGI was calculated for each group using the formula: TGI (%)=100%-T/C (%).
Efficacy study was euthanized on D28 after treatment according to requirement, tumors were collected and photographed, tumor weight were recorded meanwhile. Tumors were selected from each group and stored in 10% Formalin for the following research.
Summary statistics, including mean and the standard error of the mean (SEM), are provided for the tumor volume of each group at each time point. Statistical analysis of difference in tumor volume and tumor weight versus Vehicle group were conducted on the data obtained at each time point. T-test was performed to compare tumor volume among groups. A value of p<0.05 was considered to be statistically significant.

Structure (SMILES) | cell state under a microscope [1] | cell state under a microscope (Mouse lung cancer KPL) | T/C (%) (KPL tumor; Day 3 after treatment) | TGI (%) (KPL tumor; Day 3 after treatment) | T/C (%) (KPL tumor; Day 7 after treatment) | TGI (%) (KPL tumor; Day 7 after treatment) | T/C (%) (KPL tumor; Day 10 after treatment) | TGI (%) (KPL tumor; Day 10 after treatment) | T/C (%) (KPL tumor; Day 14 after treatment) | TGI (%) (KPL tumor; Day 14 after treatment) | T/C (%) (KPL tumor; Day 17 after treatment) | TGI (%) (KPL tumor; Day 17 after treatment) | T/C (%) (KPL tumor; Day 21 after treatment) | TGI (%) (KPL tumor; Day 21 after treatment) | T/C (%) (KPL tumor; Day 24 after treatment) | TGI (%) (KPL tumor; Day 24 after treatment) | T/C (%) (KPL tumor; Day 28 after treatment) | TGI (%) (KPL tumor; Day 28 after treatment) | tumor volume (KPL tumor; day 28) [mm^3]
C#Cc1c(F)ccc2cc(O)cc(-c3ncc4c(N5CC6CCC(C5)N6)nc(OC[C@@]56CCCN5C[C@H](F)C6)nc4c3F)c12 [MRTX1133] | poor | poor | 15.72 | 84.28 | −50.80 | 150.80 | 2.69 | 97.31 | 30.94 | 69.06 | 56.17 | 43.83 | 58.22 | 41.78 | 61.87 | 38.13 | 71.43 | 28.57 | 579.34
COc1cc(C(=O)NC2CCN(C)CC2)c(F)cc1Nc1ncc(C(F)(F)F)c(Oc2cccc3c2C(=O)N(C)C3)n1 [IN10018] | good | good | – | – | – | – | – | – | – | – | – | – | – | – | – | – | – | – | –

— patent US20240285627A1, “DRUG COMBINATION OF FAK INHIBITOR AND IMMUNOGENIC CELL DEATH INDUCER AND USE THEREOF” (INXMED (NANJING) CO., LTD., priority 2022, published 2024)
